Values quoted from earlier work as cited in patent publication US20040186131A1, “Method of preventing or treating atherosclerosis or restenosis” (priority 2002, published 2004).

Tested on: CMV infection of rats
Details: DHPG prophylaxis

## Nc1nc(O)c2ncn(COC(CO)CO)c2n1 [Ganciclovir]
  prevention of atherosclerosis resulting from CMV infection: prevent atherosclerosis
